According to patent publication US11498933B2, “Prodrug compositions” (The University of Liverpool, priority 2017, dated 2022):

What was measured:
[1] = Prodrug hydrolysis in mouse liver S9; assay type: in vitro ADME; conditions: 1 mM, compared with human liver S9
Method: (§1) Reaction mixtures containing either mouse liver S9 (20.8 mg/mL), mouse plasma, rat liver S9 (1 mg/mL) and phosphate buffer (100 mM, pH 7.4), rat plasma, human liver S9 (1.0 mg/mL) and phosphate buffer (100 mM, pH 7.4) or human plasma were pre-incubated at 37° C. for 5 minutes. Reactions were then initiated by addition of compounds 4, 8 or 16 (1 mM in mouse, 0.5 mM in rat and human). After incubation at 37° C., aliquots are taken at each time point and quenched in two volumes of ice-cold methanol. The quenched aliquots were then centrifuged at 14000 rpm for 5 minutes. The supernatant was then diluted into phosphate buffer (30 mM, pH 7.4) to yield samples with concentrations suitable for analysis.

[2] = Stability in single-round infectivity assay well media; assay type: in vitro ADME; conditions: RPMI1640, 10% FBS, 50% heat-inactivated human serum, 37° C.
Method: Well media used in the single-round infectivity assays as described above, comprised of RPMI1640 medium supplemented with 10% FBS, cytokine-rich supernatant, 50% heat-inactivated human serum and HEPES buffer (12 mM). The emtricitabine test compounds were incubated in well media at 37° C. At various time points, aliquots were quenched in two volumes of ice-cold methanol. Quenched mixtures were then centrifuged at 14000 rpm for 5 minutes. The supernatant was diluted 10-fold into Tris buffer (30 mM, pH 7.4) and then analyzed via HPLC coupled with UV detection.
Stability studies indicate that both compounds 16 and 25 were hydrolyzed to the parent emtricitabine in a time-frame matching the time of pre-incubation in single-round infectivity assays. This is likely due to the presence of heat-inactivated serum still containing active esterases.

[3] = Prodrug hydrolysis in mouse plasma; assay type: in vitro ADME; conditions: 1 mM, compared with human plasma
Method: as §1

[4] = test system: CD4+ T cells; assay: Viability staining (Zombie Red) in single-round infectivity assay
Method: Peripheral blood mononuclear cells were isolated from healthy blood donors using Hypaque-Ficoll gradient centrifugation. CD4+ T cells were selected by magnetic beads (Miltenyi) and activated using anti-CD3 and anti-CD28 antibodies. Activated cells were seeded onto a 96-well plate at a concentration of 1×10^5 cells/well in RPMI1640 supplemented with 10% FBS, cytokine-rich supernatant, and 50% heat-inactivated human serum. Test compounds were added at this step and maintained throughout the culture. Cells were incubated at 37° C. for 21 hours. Pseudotype (GFP-tagged) HIV was then added to the culture via spinoculation and incubated for 3 days. Cells were then washed and stained with Zombie Red viability stain. Infectivity was quantified using flow cytometry.

[5] = Half-life of emtricitabine amidine prodrug in phosphate buffer; assay type: physicochemical; conditions: Phosphate Buffer (100 mM, pH 7.4), 37° C.
Method: (§2) To evaluate the hydrolysis rates of emtricitabine amidine prodrugs, HPLC coupled with UV detection was used with the following method (0% to 100% acetonitrile in Et3NHOAc (50 mM, pH 8) gradient) over 10 minutes at a flow rate of 3 mL min^−1, held at 100% acetonitrile for 3 minutes, ramped down to 5% acetonitrile over 0.2 minutes and then held for 2.8 minutes. Normal human serum (Bioreclamation) or phosphate buffer (100 mM, pH 7.4) was pre-incubated at 37° C. for 5 minutes. Emtricitabine amidine compound 23 (1 mM) was then added and the reaction mixture was incubated at 37° C. […] The supernatant was injected onto a HPLC system for analysis, the resulting data can be seen illustrated in FIG. 13.

[6] = Half-life of emtricitabine amidine prodrug in human serum; assay type: in vitro ADME; conditions: normal human serum, 37° C.
Method: as §2

[7] = Half-life measurements in human plasma (HPLC-UV); assay type: in vitro ADME; conditions: Human plasma, 37° C., read-out: Half-Life (converted)
Method: (§3) To evaluate the hydrolysis rates of emtricitabine compounds 9-16, HPLC coupled with UV detection was used with the following method (0% to 100% acetonitrile in Et3NHOAc (50 mM, pH 8) gradient) over 10 minutes at a flow rate of 3 mL min^−1, held at 100% acetonitrile for 3 minutes, ramped down to 5% acetonitrile over 0.2 minutes and then held for 2.8 minutes. Male human plasma (Bioreclamation) or female human skeletal muscle S9 (7.96 mg/mL, Bioreclamation) was pre-incubated at 37° C. for 5 minutes. Compounds 9-16 (1 mM) were added and the reaction was incubated at 37° C. […] The supernatant was diluted 10 fold into Tris buffer (30 mM, pH 7.4) and injected onto the HPLC for analysis.
To evaluate the hydrolysis rates of emtricitabine trimethyl lock prodrugs, HPLC coupled with UV detection was used with the following method (0% to 100% acetonitrile in Et3NHOAc (50 mM, pH 8) gradient) over 10 minutes at a flow rate of 3 mL min^−1, held at 100% acetonitrile for 3 minutes, ramped down to 5% acetonitrile over 0.2 minutes and then held for 2.8 minutes. Human plasma (Bioreclamation) or human skeletal muscle S9 (7.96 mg/mL, Bioreclamation) was pre-incubated at 37° C. for 5 minutes. Emtricitabine trimethyl lock compound 25 (1 mM) was added and the reaction was incubated at 37° C. […] The supernatant was diluted in Tris buffer (100 mM, pH 7.4) and injected onto the HPLC for analysis. […]

[8] = Kinetic analysis of trimethyl lock prodrug in mouse liver S9 via UV; assay type: in vitro ADME; conditions: mouse liver S9 1.0 mg/mL
Method: The reaction is then initiated by the addition of emtricitabine trimethyl lock compound 25 (concentration of compound 25 ranging from 600 μM to 6 mM). […] The supernatant was diluted into Tris buffer (30 mM, pH 7.4) to yield concentrations appropriate for analysis and read spectrophotometrically monitoring a decrease in substrate at 312 nm.

[9] = Half-life measurements in human skeletal muscle S9; assay type: in vitro ADME; conditions: Human muscle S9 (7.96 mg/mL), 37° C.
Method: as §3
To evaluate the hydrolysis rates of emtricitabine trimethyl lock prodrugs, HPLC coupled with UV detection was used with the following method (0% to 100% acetonitrile in Et3NHOAc (50 mM, pH 8) gradient) over 10 minutes at a flow rate of 3 mL min^−1, held at 100% acetonitrile for 3 minutes, ramped down to 5% acetonitrile over 0.2 minutes and then held for 2.8 minutes. Human plasma (Bioreclamation) or human skeletal muscle S9 (7.96 mg/mL, Bioreclamation) was pre-incubated at 37° C. for 5 minutes. Emtricitabine trimethyl lock compound 25 (1 mM) was added and the reaction was incubated at 37° C. […] The supernatant was diluted in Tris buffer (100 mM, pH 7.4) and injected onto the HPLC for analysis.

[10] = Kinetic analysis via UV in mixed pooled gender liver S9 (10.0 mg/mL); assay type: in vitro ADME, human
Method: Reaction mixtures containing Tris buffer (30 mM, pH 7.4) and mixed pooled gender liver S9 (10.0 mg/mL) were pre-incubated at 37° C. for 5 min. […] After incubation at 37° C., aliquots were taken at each time point and quenched in two volumes of ice-cold methanol. The quenched aliquots were then centrifuged at 14000 rpm for 5 minutes. The supernatant was diluted into Tris buffer (30 mM, pH 7.4) to yield concentrations appropriate for analysis and read spectrophotometrically monitoring a decrease in substrate at 305 nm.
A reaction mixture containing Tris buffer (30 mM, pH 7.4) and mixed pooled gender liver S9 (10.0 mg/mL) was pre-incubated at 37° C. for 5 minutes. The reaction was then initiated by the addition of emtricitabine trimethyl lock compound 25 (concentration of compound 25 ranging from 100 μM to 8 mM). After incubation at 37° C., aliquots were taken at each time point and quenched in two volumes of ice-cold methanol. The quenched aliquots were then centrifuged at 14000 rpm for 5 minutes. The supernatant was diluted into Tris buffer (30 mM, pH 7.4) to yield samples having concentrations appropriate for analysis and read spectrophotometrically monitoring a decrease in substrate at 312 nm.

Row | half-life at 1 mM [5] [h] | half-life at 1 mM [6] [h] | SMILES | hydrolysis rate in mouse liver S9 [1] | half-life [2] [h] | hydrolysis rate in mouse plasma [3] | toxicity on CD4+ T cells (viability staining) [4] | half-life at 1 mM [7] [h] | Km ([8]; both sexes, pooled mouse liver S9, pH 7.4, 600 μM to 6 mM) [µM] | Intrinsic Clearance [8] [µL/min/mg] | Vmax [8] [nmol/h/mg] | half-life at 1 mM [9] [h] | Intrinsic Clearance [10] [µL/min/mg] | Vmax [10] [nmol/h/mg] | Km ([10]; both sexes, human, pooled liver S9, pH 7.4, 100 μM to 8 mM, 312 nm) [µM]
1 |  |  | CCCCCCCCOC(=O)Nc1nc(=O)n([C@@H]2CS[C@H](CO)O2)cc1F [Compound 16, octyl (5-fluoro-1-((2R,5S)-2-(hydroxymethyl)-1,3-oxathiolan-5-yl)-2-oxo-1,2-dihydropyrimidin-4-yl)carbamate] | comparable in mouse and human liver S9 | 18 | dramatically enhanced relative to human plasma | little to no toxicity |  |  |  |  |  |  |  | 
2 | 95 | 5.8 | CN(C)/C=N\c1nc(=O)n([C@@H]2CS[C@H](CO)O2)cc1F [Compound 23, (Z)—N′-(5-fluoro-1-((2R,5S)-2-(hydroxymethyl)-1,3-oxathiolan-5-yl)-2-oxo-1,2-dihydropyrimidin-4-yl)-N,N-dimethylformimidamide] |  |  |  |  |  |  |  |  |  |  |  | 
3 |  |  | CC(=O)Oc1cc(C)cc(C)c1C(C)(C)CC(=O)Nc1nc(=O)n([C@@H]2CS[C@H](CO)O2)cc1F [Compound 25, 2-(4-((5-fluoro-1-((2R,5S)-2-(hydroxymethyl)-1,3-oxathiolan-5-yl)-2-oxo-1,2-dihydropyrimidin-4-yl)amino)-2-methyl-4-oxobutan-2-yl)-3,5-dimethylphenyl acetate] |  | 0.83 |  | little to no toxicity | 0.4 | 1600 | 138.3 | 13200 | 1 | 11.5 | 1659 | 2400
